# Assay results as given in ChEMBL document CHEMBL5518164, “Membrane-permeable tenofovir-di- and monophosphate analogues” (Eur J Med Chem, 2024).
# The source made the active and inactive calls. The rule behind the calls is not given here.
# Key:
# [1] = Cytotoxicity against human CEM cells assessed as inhibition of cell proliferation; assay type: toxicity, cell-based, CCRF-CEM
# [2] = Half life of the compound in phosphate buffer saline at pH 7.3 by RP18-HPLC analysis; assay type: ADME
# [3] = test system: Human immunodeficiency virus 2; test: Antiviral activity against HIV-2 ROD infected in wild type human CEM/0 cells assessed as inhibition of virus-induced giant cell formation incubated for 4 to 5 days by light microscopy; assay type: functional, organism-based; conditions: Human immunodeficiency virus 2, ROD, CCRF-CEM
# [4] = Selectivity index, ratio of CC50 for cytotoxicity against human CEM cells to EC50 for antiviral activity against HIV-2 ROD infected in thymidine kinase deficient human CEM cells; assay type: toxicity, cell-based; conditions: read-out: Ratio CC50/EC50
# [5] = Lipophilicity of the compound assessed as retention time by RP-HPLC analysis; assay type: physicochemical
# [6] = Half life of the compound in citrate-containing human plasma by HPLC analysis; assay type: ADME, cell-free
# [7] = test system: Human immunodeficiency virus 1; test: Antiviral activity against HIV-1 HE infected in wild type human CEM/0 cells assessed as inhibition of virus-induced giant cell formation incubated for 4 to 5 days by light microscopy; assay type: functional, organism-based; conditions: Human immunodeficiency virus 1, HE, CCRF-CEM
# [8] = Half life of the compound in heparin-stabilized human plasma by HPLC analysis; assay type: ADME, cell-free
# [9] = test system: Human immunodeficiency virus 2; test: Antiviral activity against HIV-2 ROD infected in thymidine kinase deficient human CEM cells assessed as inhibition of virus-induced giant cell formation incubated for 4 to 5 days by light microscopy; assay type: functional, organism-based; conditions: Human immunodeficiency virus 2, ROD, CCRF-CEM
# [10] = Half life of the compound in phosphate buffer saline in presence of pig liver esterase at pH 7.3 by RP18-HPLC analysis; assay type: ADME, Sus scrofa
# [11] = Half life of the compound in human CEM/0 cell extracts by RP18-HPLC analysis; assay type: ADME, CCRF-CEM
# [12] = test system: Human immunodeficiency virus; test: Substrate activity at HIV reverse transcriptase assessed as n+1 band formation incubated for 30 mins in presence of primer/template mixture and dNTPs by primer extension assay based fluorescence analysis
# [13] = Prodrug conversion of the compound in phosphate buffer saline assessed as (R)-9-(2-(phosphonomethoxy)propyl)adenine formation by measuring half life at pH 7.3 by RP18-HPLC analysis; assay type: ADME
# [14] = Prodrug conversion of the compound in phosphate buffer saline assessed as (R)-9-(2-(phosphonomethoxy)propyl)adenine formation by measuring half life in presence of pig liver esterase at pH 7.3 by RP18-HPLC analysis; assay type: ADME, Sus scrofa
SMILES,half-life [2],EC50 [3],Retention_time [5],EC50 [7],EC50 [9],half-life [10],half-life [11],Activity [12],t1/2 [13],t1/2 [14],CC50 [1],selectivity ratio [4],half-life [6],half-life [8]
CC(C)OC(=O)OCOP(=O)(CO[C@H](C)Cn1cnc2c(N)ncnc21)OCOC(=O)OC(C)C.O=C(O)/C=C/C(=O)O [TENOFOVIR DISOPROXIL FUMARATE],27.8 h,0.003 µM,10.1 min,0.013 µM,0.003 µM,,,,,,> 5 µM,> 1430,0.167 h,0.167 h
Nc1ncnc2c1ncn2[C@H]1C[C@H](O)[C@@H](COP(=O)(O)OP(=O)(O)OP(=O)(O)O)O1,,,,,,,,Active,,,,,,
CC(C)OC(=O)[C@H](C)N[P@](=O)(CO[C@H](C)Cn1cnc2c(N)ncnc21)Oc1ccccc1.CC(C)OC(=O)[C@H](C)N[P@](=O)(CO[C@H](C)Cn1cnc2c(N)ncnc21)Oc1ccccc1.O=C(O)/C=C/C(=O)O [TENOFOVIR ALAFENAMIDE FUMARATE],,,,,,,,,,,,,1.5 h,1.5 h
CCCCCCCCCCCC(=O)Oc1ccc(COOP(=O)(O)OP(=O)(O)OP(=O)(O)CO[C@H](C)Cn2cnc3c(N)ncnc32)cc1,,0.23 µM,,0.46 µM,0.3 µM,,,,,,> 100 µM,> 333,,
CCCCOP(=O)(OCCCC)OP(=O)(O)OP(=O)(O)CO[C@H](C)Cn1cnc2c(N)ncnc21,> 1000 h,1.22 µM,9.7 min,4.27 µM,2.54 µM,,,,,,> 100 µM,> 39,,

# Continued, in another order:
half-life [2],EC50 [3],Retention_time [5],EC50 [7],EC50 [9],half-life [10],half-life [11],Activity [12],t1/2 [13],t1/2 [14],SMILES,CC50 [1],selectivity ratio [4],half-life [6],half-life [8]
220 h,0.035 µM,15.6 min,0.061 µM,0.065 µM,> 100 h,> 20 h,,,,CCCCCCCCCCCCOP(=O)(OCCCCCCCCCCCC)OP(=O)(O)OP(=O)(O)CO[C@H](C)Cn1cnc2c(N)ncnc21,44.7 µM,688,,
,10.3 µM,18.1 min,6.96 µM,0.39 µM,,1.9 h,,111 h,,CCCCCCCCCCCCCCCCCCOP(=O)(OCc1ccc(OC(=O)CCCCCC)cc1)OP(=O)(O)OP(=O)(O)CO[C@H](C)Cn1cnc2c(N)ncnc21 (some centres undefined),> 100 µM,> 256,,
207 h,0.05 µM,16.6 min,0.16 µM,0.1 µM,,> 8 h,,,,CCCCCCCCCCCCCCCCCCOP(=O)(OCCCCCCCC)OP(=O)(O)OP(=O)(O)CO[C@H](C)Cn1cnc2c(N)ncnc21 (some centres undefined),44.7 µM,447,,
26.5 h,0.032 µM,20.1 min,0.073 µM,0.022 µM,,> 8 h,,,,CCCCCCCCCCCCCCCCCCP(=O)(OCCCCCCCC)OP(=O)(O)CO[C@H](C)Cn1cnc2c(N)ncnc21 (some centres undefined),45.2 µM,2050,,
,0.77 µM,19.1 min,0.45 µM,0.31 µM,,3.5 h,,24 h,2.15 h,CCCCCCCCCCCCCCCCCCOP(=O)(OCc1ccc(OC(=O)CCCCCCCC)cc1)OP(=O)(O)OP(=O)(O)CO[C@H](C)Cn1cnc2c(N)ncnc21 (some centres undefined),> 100 µM,> 322,,
,0.62 µM,,1.23 µM,0.54 µM,,,,,,CCCCCCCCCCCOP(=O)(OCc1ccc(OC(=O)CCCCCCCC)cc1)OP(=O)(O)OP(=O)(O)CO[C@H](C)Cn1cnc2c(N)ncnc21 (some centres undefined),> 100 µM,> 185,,
,0.12 µM,16.8 min,0.39 µM,0.067 µM,,2.6 h,,72 h,,CCCCCCCCCCCCCCCCCCOP(=O)(OCc1ccc(OC(=O)CC)cc1)OP(=O)(O)OP(=O)(O)CO[C@H](C)Cn1cnc2c(N)ncnc21 (some centres undefined),51.1 µM,762,,
